The text below walks through data of US6677307B2, “TGF-α polypeptides, functional fragments and methods of use therefor” (Kaleidos Pharma, Inc., priority 1999, dated 2004).

The test system of assay [1] is kidney tissue (primarily glomeruli). Put plainly: Cis-platinum kidney damage, H&E kidney histology. The format is in vivo. The settings on record: mice; CP 10 mg/kg ip; 10 μg/kg 6 hours prior to CP and 24 and 48 hours after CP. How it is done: In addition, administration of a TGF-α polypeptide, fragments, and mimetic to regenerate damaged tissue, for example, in kidney, an organ sensitive to such damage, is also disclosed herein. In an in vivo experiment, mice were administered 10 mg/kg of Cis-platinum as a single ip injection and treated mice administered 10 μg/kg a human TGF-α57 (R&D Systems, Minneapolis, Minn.). TGF-α57 was administered just before CP and in two additional doses after, by ip administration for a general systemic effect. Several organs or tissues were collected from the animals sacrificed 4 days after CP dose (or saline for no TGFα57) and tissues were examined histologically.
The cuboidal epithelium of the proximal convuluted tubule was also damaged.

The test system of the next assay is kidney. As to the kind of experiment: gentamicin chronic kidney toxicity, blood BUN and creatinine. The assay is classed as in vivo, CD-1 mice. The settings on record: gentamicin sulfate 80 mg/kg sc every 24 hours; 1 μg ip every 24 hours; two weeks. How it is done: In another set of in vivo experiments, gentamicin (antibiotic having dose-limiting kidney toxicity side effects) was used as the cytotoxic agent for a chronic cytotoxic agent. Eight CD-1 mice were weighed and injected subcutaneously with 80 mg/kg of gentamicin sulfate. Four of the mice were controls and injected with 0.1 ml of 0.9% saline and the other four injected ip with 0.1 ml of 10 μg/ml stock of TGF-α (57 aa polypeptide) as a 1 μg dose. The mice were reinjected with the same does of saline or TGF-α every 24 hours and every 24 hours subcutaneously with the same does of gentamicin. After two weeks of treatment, the mice were sacrificed and blood BUN and creatinine were measured and the kidneys examined. The average creatinine values were 0.49±0.096 for controls and 0.34±0.042 for treated mice. The average BUN values were 36.1±4.8 for controls and 35.5±4.9 for treated mice.

For the next assay, the system named is mouse spleen. As to the kind of experiment: in vivo model of general hematopoiesis with Cis Platinum (spleen weights, platelets, spleen histology). How it is done:
Hematopoietic and myeloid cells are red blood cell precursors, platelet precursors (megakaryocytes), and immune (white) blood cell precursors of various forms of T cells, B cells and macrophages. […] It should be noted that references to TGF-α as a human 50 amino acid polypeptide further include reference to human TGFα57 as an alternative variant.
(§1) The experiment procedure dosed those animals to be treated with TGFα 57 4 hours prior to challenge with CP. A single dose of CP was administered. Additional doses (as indicated) of TGFα 57 were made at 24 hours, 48 hours, 72 hours and 96 hours after the CP dose. All doses were made by IP injection. Controls were dosed with saline instead of either or both of CP and TGF-α57.
(§2) The animals were sacrificed about 4 hours after the last TGF-α57 (or saline) dose. Key organs were removed and spleens were immediately weighed after a clean incision. All the relevant organs were placed in formalin, transported for histopathological analysis, mounted, sectioned, stained and observed. The results of this histological analysis of the spleens for hematopoietic effect and the GI tract (below) provided surprising and unexpected data of the effect of TGF-α57 activity.
There was erythrocytes in the perifollicular zone surrounding both the T cell and B cell compartments of white pulp. […] The T cells stained for the T-cell receptor but were negative for CD4 and CD8 markers. Accordingly, the T-cells are double null T-cell progenitors induced by TGF-α administration.

Assay [2] has as its system human CD34 positive and CD38 negative cells. Put plainly: liquid primary culture of human bone-marrow enriched CD34 cells. The format is cell-based. How it is done:
An additional experiment investigated TGF-α activity (using TGF-α57) on human bone-marrow enriched CD34 cells. FACS-sorted human CD34 positive and CD38 negative cells were cultured in liquid primary cultures in Iscove's modified Dulbecco's media with supplements. […] Stem Cell Factor (SCF) was used as a positive control (500 ng/ml) and provided a three-fold increase in CD34 positive cells. When a combination of SCF (500 ng/ml) and TGFα (10 ng/ml) was added, a synergistic 12-fold increase in CD34 positive cells was observed.

In another assay the test system is mouse intestines. Put plainly: histological examination of intestines of CP-treated mice. The format is in vivo. How it is done: as §1, §2
TGFα or a peptide from formula I, formula II, formula III, formula IV, formula V, or formula VI having TGFα activity or combinations thereof are also useful for treating mucositis associated intestinal bleeding, dyspepsia caused by with cytotoxic therapy and for improving the barrier function of the GI tract compromised by cytotoxic therapy. The in vivo experiment with seven groups of mice described above for hematopoietic effects noted in spleens also examined the GI tract of these treated mice. […] A single row of intestinal crypt is found at the base of the mucosa. These crypts that lie between adjacent villi are surrounded by the same lamina propria that form the villous cores. Both columnar absorptive cells and goblet cells cover the villous surfaces. The goblet cells contain apical clear vacuoles. […] Specifically, the villus was long and slender. Both absorptive cells and goblet cells were visible at the surface of the villi, and there was an abundant amount of goblet cells on the surface.
A 160×magnification of the intestines of a CP-treated mouse, a normal mouse and a CP treated and TGFα57 treated mouse at the same doses as described above. […] The crypts were irregularly shaped and in had various heights. […] The crypts also appeared normal.
Red cells were visible at the damaged surface indicating intestinal bleeding. […] Globlet cells appeared interspersed, necrotic and fewer in number than normal. […] Specifically, the epithelial cells appeared normal with extended brush borders. The nuclei were very densely stained and elongated.
The histological data is summarized in FIG. 4 that measured average crypt height of the three groups of mice.
An alcian blue staining method permitted differentiation of absorptive cells and goblet cells. Goblet cell mucus is stained a blue color while the absorptive cells remain less stained. […] In the normal intestine each villus extended from the luminal surface to the basal muscularis mucosal surface. Goblet cells were scattered and predominated in the base of the villus whereas columnar absorptive cells lined the luminal surface. […] The injured absorptive and goblet cells were degenerating at the tip of the villi and abundant secretory mucus material was stained in the luminal surface. In the CP/TGF-α mouse, there were an increased number of goblet cells scattered throughout the villi. The intestinal villi appeared normal with elongation. […] The luminal plasma membranes of the villi were well protected by TGF-α treatment. The number of goblet cells was counted on the average unit length of intestine.

With “TGF-α57: 57 amino acid polypeptide of formula VI: Ser-Leu-Ser-Leu-Pro-Ala-Met-Human TGFα”, the “glomeruli damage (H&E kidney histology)” value in assay [1] is on record as “essentially protected the glomeruli from damage”. In the assay with kidney, the “average BUN” value amounted to 35.5±4.9 and the average creatinine is recorded as 0.34±0.042. The spleen weights entry with mouse spleen (CP 5 mg/kg or 10 mg/kg, 10 μg/kg or 50 μg/kg IP, FIG. 3) is on record as “return to normal spleen weights”. Moreover, the “spleen histology (H&E)” value in the assay with mouse spleen (CP 10 mg/kg and 50 μg/kg) is “increased number of T cells and erythrocytes in the perifollicular zone”. Further, the platelet counts result in the assay with mouse spleen (with CP, as opposed to CP alone) is on record as “higher”. For the same substance, the “increase in CD34 positive progenitor cells” value in assay [2] (added alone, 10 ng/ml) turned out to be 35%. In addition, in assay [2] (treated cultures), the “proliferation of dendritic precursor cells” value is listed as “stimulation of the proliferation of dendritic precursor cells”. In addition, in the assay with mouse intestines (CP 10 mg/kg and 50 μg/kg), the “intestinal structure (cross section histology)” value is “intestinal structure was very similar to the normal intestinal structure”; the “number of goblet cells on the average unit length of intestine (alcian blue)” value is listed as “increased the number from CP treatment to a higher level than normal intestine”; the “villa surface, higher magnification” value was “protection of the villa surface”; the “villi and crypts, 160× magnification” value is recorded as “normal appearing villi”. Moreover, in the assay on mouse intestines (CP treatment, 50 μg/kg, FIG. 4), the average crypt height entry was “more-than-restore crypt height loss”.
